ChEMBL document CHEMBL5726263, “Pyrazolopyrimidinyl inhibitors of ubiquitin-activating enzyme” (2017)

Target: Ubiquitin-conjugating enzyme E2 E1 (Homo sapiens, UniProt P51965)
Experiment: HTRF Assay : The UAE enzymatic reaction totals 50 μL and contains 50 mmol HEPES (pH 7.5), 0.05% BSA, 2.5 mM MgCl2, 0.1 uM ATP, 8 nM GST-Ubc-2, 35 nM flag-ubiquitin, 1 nM recombinant human UAE or mouse UAE. Compounds for this hUAE 1050 assay are tested at 10 point 3-fold dilution. The top concentration for this assay is 1 μM. Each compound is ordered in duplicate on the same plate.

Ubiquitin-conjugating enzyme E2 E1, sequence (P51965 whole entry): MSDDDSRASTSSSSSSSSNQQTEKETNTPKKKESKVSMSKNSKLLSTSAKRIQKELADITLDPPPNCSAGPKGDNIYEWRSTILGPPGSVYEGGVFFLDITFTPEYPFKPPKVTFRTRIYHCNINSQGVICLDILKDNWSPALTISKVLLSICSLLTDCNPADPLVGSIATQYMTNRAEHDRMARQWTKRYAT

- IC50: < 10 nM
SMILES: NS(=O)(=O)OC[C@H]1C[C@@H](Nc2ccnc3cc(-c4cccc5ccccc45)nn23)[C@H](O)[C@@H]1O (racemic)
